Experimental data as given in patent publication US20250281474A1, “PHARMACEUTICAL COMPOSITION FOR TREATING COGNITIVE DECLINE OR FOR TREATING OVERWEIGHTNESS OR OBESITY” (University of the Ryukyus, priority 2021, published 2025).
Read-outs that look alike come from different tables or passages of the source.

Assays:
NMDAR [1] = test: Ca2+ imaging of hippocampal brain slices, NMDA+glycine application (NMDA reaction), HFD-fed mice; assay type: cell-based, mouse; conditions: HFD mice orally administered PER; leptin 100 nM
NMDAR [2] = test: Ca2+ imaging of hippocampal brain slices, NMDA+glycine application, ob/ob mice; conditions: ob/ob mice orally administered PER; leptin 100 nM
CP-AMPAR = test: Ca2+ imaging of hippocampal brain slices, AMPA+CTZ application, ob/ob mice; assay type: cell-based, mouse
AMPAR (CP-AMPAR) = test: Ca2+ imaging of hippocampal brain slices, AMPA+CTZ application (CP-AMPA reaction), HFD-fed mice; assay type: cell-based
Experimental: First, the intracellular calcium concentration ([Ca^2+]i) was directly measured in an acute brain slice of the hippocampus having a perihippocampal region using a mouse obesity model associated with HFD feeding (composition of diet (7) shown in Table 1) for 12 weeks after weaning to track calcium signaling (FIG. 1A: supplementary data moving image 1) in the hippocampus. HFD-fed mice received […] containing 100 μM CTZ (cyclothiazide; […]) applied to EC (entorhinal cortex), CA1 (cornu ammonis 1), CA2, CA3, and DG (dentate gyrus). The F525 normalized before and after application was compared.

NMDA receptor = test: Ca2+-dependent inactivation of the NMDA receptor, Ca2+ imaging of brain slices; assay type: cell-based, mouse; conditions: brain slices of mice fed HFD 2 weeks; 3 μM, 60 min; n=3
[3] = Ca2+ indicator; cited from earlier work

**Q.** For “leptin: hormone that regulates energy expenditure”, which “function of NMDAR in EC, CA1, CA2, CA3, DG” value (NMDAR [1]) is on record?
**A.** significantly enhanced

**Q.** And the “function of NMDAR in EC, CA1, CA2, CA3, DG” value (NMDAR [2])?
**A.** significantly enhanced

**Q.** With `NCCCNCCCCNCCCNC(=O)Cc1cccc2ccccc12` [NASPM, N-[3-[[4-[(3-aminopropyl)amino]butyl]amino]propyl]-1-naphthaleneacetamide] as the molecule, how does the “inhibitory effect on CP-AMPAR in EC, CA1, CA2, CA3, DG” value (CP-AMPAR) read?
**A.** significant inhibitory effect

**Q.** What about the “increase in [Ca2+]i via pathological AMPAR” value (AMPAR (CP-AMPAR)) of the same molecule?
**A.** disappeared

**Q.** For `CC(=O)OCOC(=O)CN(CC(=O)OCOC(C)=O)c1ccccc1OCCOc1ccccc1N(CC(=O)OCOC(C)=O)CC(=O)OCOC(C)=O` [BAPTA-AM], which “inactivation of the NMDA receptor (reactivity to NMDA 50 μM and glycine 10 μM)” value (NMDA receptor) is on record?
**A.** released the inactivation of the NMDA receptor

**Q.** Which Kd [3] does the source give for `CC(=O)OCOC(=O)CN(CC(=O)OCOC(C)=O)c1ccc(C)cc1OCCOc1cc(-c2c3cc(Cl)c(=O)cc-3oc3cc(OCOC(C)=O)c(Cl)cc23)ccc1N(CC(=O)OCOC(C)=O)CC(=O)OCOC(C)=O` [Fluo-3 AM] here?
**A.** 0.4 µM

**Q.** Which “inhibitory effect on CP-AMPAR in EC, CA1, CA2, CA3, DG” value (CP-AMPAR; ob/ob mice slices, 100 μM, p<0.05 (FIG. 10-1A)) does the source give for `Cc1cn2c(n1)Cc1ccc(Cl)cc1C(c1ccc(N)cc1)=N2` [GYKI 47261] here?
**A.** significant inhibitory effect
